19 compounds from US11040031B2, “Pyrazole derivatives as MALT1 inhibitors” (Janssen Pharmaceutica NV, priority 2018, dated 2021) can be followed below.

Read-outs that look alike come from different tables or passages of the source.

For assay [1], the system named is Secretion of IL10 by OCI-LY3 ABC-DLBCL cells. Nature of the assay: Human IL10 Mesoscale assay (OCI-LY3). Type of assay: cell-based. To be noted: read-out: Human IL10 Mesoscale assay (OCI-LY3). How it is done: (§1) NFKB signaling regulates the secretion of multiple cytokines, including IL6 and IL10. Secretion of the cytokines IL6 and IL10 by TMD8 or OCI-LY3 ABC-DLBCL cells was measured using a mesoscale assay.
(§2) Cell passage number should not exceed 30. Cells should be kept between 0.5-2.5 million cells per mL during culturing and cells should be supplemented every 2-3 days with fresh 50 µM beta-mercaptoenthanol. No beta-mercaptoethanol was used during the mesoscale assay.
(§3) DMSO control wells were used to determine the maximum signal (High Control (HC)). […] Compounds and cells were incubated for 24 h at 37° C. and 5% CO2 (assay volume is 150 μL). After 24 h of incubation 50 μL of the supernatant was transferred to a MSD plate (V-Plex Proinflammation Panel 1 (human) kit, Mesoscale (MSD)) and incubated for 2 h with vigorous shaking (600 rpm) at room temperature. Following incubation, plates were washed 3× with PBS+0.05% Tween-20 and 25 μL detection antibody solution (IL6 & IL10 antibodies in diluent 3 (MSD)) was added per well followed by 2 h of incubation with vigorous shaking (600 rpm) at room temperature. After 3× washes with PBS+0.05% Tween-20, plates were incubated with 150 μL 2× Read Buffer T and read on SECTOR imager.

In assay [2] the test system is Secretion of IL6 by OCI-LY3 ABC-DLBCL cells. Put plainly: Human IL6 Mesoscale assay (OCI-LY3). To be noted: read-out: Human IL6 Mesoscale assay (OCI-LY3). Type of assay: cell-based. How it is done:
as §1, §2, §3

In assay [3] the target is T1, full-length MALT1 protein (Strep-MALT1(1-824)-His) (Homo sapiens, UniProt Q9UDY8).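 Note: fluorogenic LRSR-AMC substrate cleavage by MALT1, 50 min compound preincubation then 4 h reaction at RT, 11-point dilution from 30 µM, scaled between enzyme-free and untreated enzyme controls.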
T1 sequence (Q9UDY8 1-824): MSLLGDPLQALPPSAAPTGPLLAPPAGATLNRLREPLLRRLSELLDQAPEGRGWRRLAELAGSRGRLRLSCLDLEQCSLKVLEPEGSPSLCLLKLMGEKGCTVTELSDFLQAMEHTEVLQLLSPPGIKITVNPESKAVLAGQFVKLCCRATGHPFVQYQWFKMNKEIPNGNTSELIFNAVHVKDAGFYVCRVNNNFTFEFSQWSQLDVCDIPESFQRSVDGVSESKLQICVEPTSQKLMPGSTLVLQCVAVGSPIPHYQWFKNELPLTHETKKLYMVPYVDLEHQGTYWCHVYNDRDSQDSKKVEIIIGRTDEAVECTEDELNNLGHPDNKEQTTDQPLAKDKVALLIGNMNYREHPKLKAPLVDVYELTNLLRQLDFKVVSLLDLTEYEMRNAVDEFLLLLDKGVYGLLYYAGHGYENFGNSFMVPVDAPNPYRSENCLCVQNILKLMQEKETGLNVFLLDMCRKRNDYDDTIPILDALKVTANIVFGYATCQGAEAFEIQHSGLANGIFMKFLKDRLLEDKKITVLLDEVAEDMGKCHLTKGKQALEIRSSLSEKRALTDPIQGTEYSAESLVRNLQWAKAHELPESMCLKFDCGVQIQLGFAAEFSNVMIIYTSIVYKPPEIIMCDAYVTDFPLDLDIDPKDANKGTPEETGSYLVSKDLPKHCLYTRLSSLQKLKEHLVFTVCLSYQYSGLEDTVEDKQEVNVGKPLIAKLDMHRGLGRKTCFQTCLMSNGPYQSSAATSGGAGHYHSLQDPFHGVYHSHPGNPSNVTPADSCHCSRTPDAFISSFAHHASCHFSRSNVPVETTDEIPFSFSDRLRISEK
Put plainly: biochemical.

Setting [4] is: OCI-LY3 cells, 24 h incubation, supernatant, MSD V-Plex.

For `Cc1cc(C#N)ccc1-n1ncc(C(=O)Nc2cnc(-n3nccn3)c(Cl)c2)c1C(F)(F)F` [Cpd 37, N-(5-chloro-6-(2H-1,2,3-triazol-2-yl)pyridin-3-yl)-1-(4-cyano-2-methylphenyl)-5-(trifluoromethyl)-1H-pyrazole-4-carboxamide], the IC50 in assay [1] (setting [4]) was found to be 63 nM; in assay [2] (setting [4]), 95 nM; in assay [3], 63 nM.
On to `O=C(Nc1cnc(-n2nccn2)c(Cl)c1)c1cnn(-c2ccc(F)c(F)c2Cl)c1C(F)(F)F` [Cpd 73, 1-(2-chloro-3,4-difluorophenyl)-N-(5-chloro-6-(2H-1,2,3-triazol-2-yl)pyridin-3-yl)-5-(trifluoromethyl)-1H-pyrazole-4-carboxamide], for which the IC50 in assay [1] (setting [4]) was 110 nM; in assay [2] (setting [4]), 138 nM; in assay [3], 234 nM.
As to `N#Cc1cc(NC(=O)c2cnn(-c3ccc(F)c(F)c3F)c2C(F)(F)F)cnc1-n1nccn1` [Cpd 97, N-(5-cyano-6-(2H-1,2,3-triazol-2-yl)pyridin-3-yl)-5-(trifluoromethyl)-1-(2,3,4-trifluorophenyl)-1H-pyrazole-4-carboxamide], the IC50 in assay [1] (setting [4]) stood at 95 nM; in assay [2] (setting [4]), 151 nM; in assay [3], 263 nM.
Consider `N#Cc1cc(NC(=O)c2cnn(-c3c(Cl)cc(F)cc3Cl)c2C(F)(F)F)cnc1-n1nccn1` [Cpd 102, N-(5-cyano-6-(2H-1,2,3-triazol-2-yl)pyridin-3-yl)-1-(2,6-dichloro-4-fluorophenyl)-5-(trifluoromethyl)-1H-pyrazole-4-carboxamide], for which the IC50 in assay [1] (OCI-Ly3, 24 h) worked out at 158 nM; in assay [2] (OCI-Ly3, 24 h), 158 nM; in assay [3], 151 nM.
Turning to `O=C(Nc1cnc(-n2nccn2)c(Cl)c1)c1cnn(-c2ccc(F)cc2Cl)c1C(F)(F)F` [Cpd 107, 1-(2-chloro-4-fluorophenyl)-N-(5-chloro-6-(2H-1,2,3-triazol-2-yl)pyridin-3-yl)-5-(trifluoromethyl)-1H-pyrazole-4-carboxamide], the IC50 in assay [1] (setting [4]) worked out at 112 nM; in assay [2] (setting [4]), 158 nM; in assay [3], 141 nM.
Turning to `Cc1cc(F)cnc1-n1ncc(C(=O)Nc2cnc(-n3nccn3)c(C#N)c2)c1C(F)(F)F` [Cpd 113, N-(5-cyano-6-(2H-1,2,3-triazol-2-yl)pyridin-3-yl)-1-(5-fluoro-3-methylpyridin-2-yl)-5-(trifluoromethyl)-1H-pyrazole-4-carboxamide], the values for the IC50 in assay [1] (setting [4]), in assay [2] (setting [4]) and in assay [3] were 324 nM, 372 nM and 158 nM, respectively.
In the same order, the values of `N#Cc1cc(NC(=O)c2cnn(-c3ccccc3Cl)c2C(F)(F)F)cnc1-n1nccn1` [Cpd 116, 1-(2-chlorophenyl)-N-(5-cyano-6-(2H-1,2,3-triazol-2-yl)pyridin-3-yl)-5-(trifluoromethyl)-1H-pyrazole-4-carboxamide] are 105 nM, 107 nM and 117 nM.
`Nc1ccnc(-n2ncc(C(=O)Nc3cnc(-n4nccn4)c(Cl)c3)c2C(F)(F)F)c1Cl` [Cpd 119, 1-(4-Amino-3-chloropyridin-2-yl)-N-(5-chloro-6-(2H-1,2,3-triazol-2-yl)pyridin-3-yl)-5-(trifluoromethyl)-1H-pyrazole-4-carboxamide]: the IC50 in assay [1] (setting [4]) stood at 148 nM; in assay [2] (setting [4]) it was 282 nM; in assay [3], 209 nM.
Take `Cc1cc(C#N)ccc1-n1ncc(C(=O)Nc2cnc(-n3nccn3)c(C#N)c2)c1C(F)(F)F` [Cpd 126, 1-(4-cyano-2-methylphenyl)-N-(5-cyano-6-(2H-1,2,3-triazol-2-yl)pyridin-3-yl)-5-(trifluoromethyl)-1H-pyrazole-4-carboxamide]: the IC50 in assay [1] (OCI-Ly3, 24 h) was 68 nM; in assay [2] (OCI-Ly3, 24 h), 76 nM; in assay [3] it was 38 nM.
Regarding `CSc1ccccc1-n1ncc(C(=O)Nc2cnc(-n3nccn3)c(Cl)c2)c1C(F)(F)F` [Cpd 137, N-(5-chloro-6-(2H-1,2,3-triazol-2-yl)pyridin-3-yl)-1-(2-(methylthio)phenyl)-5-(trifluoromethyl)-1H-pyrazole-4-carboxamide], the IC50 is 100 nM in assay [1] (setting [4]), 123 nM in assay [2] (setting [4]) and 151 nM in assay [3].
In the same order, the values of `N#Cc1ccc(-n2ncc(C(=O)Nc3cnc(-n4nccn4)c(C#N)c3)c2C(F)(F)F)nc1N` [Cpd 139, 1-(6-Amino-5-cyanopyridin-2-yl)-N-(5-cyano-6-(2H-1,2,3-triazol-2-yl)pyridin-3-yl)-5-(trifluoromethyl)-1H-pyrazole-4-carboxamide] are 76 nM, 74 nM and 26 nM.
Consider `N#Cc1ccc(-n2ncc(C(=O)Nc3cnc(-n4nccn4)c(Cl)c3)c2C(F)(F)F)nc1N` [Cpd 140, 1-(6-amino-5-cyanopyridin-2-yl)-N-(5-chloro-6-(2H-1,2,3-triazol-2-yl)pyridin-3-yl)-5-(trifluoromethyl)-1H-pyrazole-4-carboxamide], for which the IC50 in assay [1] (setting [4]) worked out at 123 nM; in assay [2] (setting [4]), 132 nM; in assay [3], 58 nM.
Consider `Cc1ccc(N)nc1-n1ncc(C(=O)Nc2cnc(-n3nccn3)c(C#N)c2)c1C(F)(F)F` [Cpd 141, 1-(6-amino-3-methylpyridin-2-yl)-N-(5-cyano-6-(2H-1,2,3-triazol-2-yl)pyridin-3-yl)-5-(trifluoromethyl)-1H-pyrazole-4-carboxamide], for which the IC50 in assay [1] (setting [4]) is 407 nM; in assay [2] (setting [4]) it was 427 nM; in assay [3], 100 nM.
Consider `Cc1c(-n2ncc(C(=O)Nc3cnc(-n4nccn4)c(Cl)c3)c2C(F)(F)F)ccc(F)c1F` [Cpd 174, N-(5-chloro-6-(2H-1,2,3-triazol-2-yl)pyridin-3-yl)-1-(3,4-difluoro-2-methylphenyl)-5-(trifluoromethyl)-1H-pyrazole-4-carboxamide], for which the IC50 in assay [1] (setting [4]) came to 83 nM; in assay [3] it was 170 nM.
Take `Cc1c(-n2ncc(C(=O)Nc3cnc(-n4nccn4)c(Cl)c3)c2C(F)(F)F)ccnc1N` [Cpd 199, 1-(2-amino-3-methylpyridin-4-yl)-N-(5-chloro-6-(2H-1,2,3-triazol-2-yl)pyridin-3-yl)-5-(trifluoromethyl)-1H-pyrazole-4-carboxamide]: the IC50 in assay [3] is 174 nM.
`Cc1nc(C#N)ccc1-n1ncc(C(=O)Nc2cnc(-n3nccn3)c(Cl)c2)c1C(F)(F)F` [Cpd 201, N-(5-chloro-6-(2H-1,2,3-triazol-2-yl)pyridin-3-yl)-1-(6-cyano-2-methylpyridin-3-yl)-5-(trifluoromethyl)-1H-pyrazole-4-carboxamide] gave an IC50 in assay [3] of 138 nM.
In assay [3], `O=C(Nc1cnc(-n2nccn2)c(Cl)c1)c1cnn(-c2cccc(Br)n2)c1C(F)(F)F` [Cpd 202, 1-(6-bromopyridin-2-yl)-N-(5-chloro-6-(2H-1,2,3-triazol-2-yl)pyridin-3-yl)-5-(trifluoromethyl)-1H-pyrazole-4-carboxamide] displayed an IC50 of 741 nM.
The same measure, in the same setting: to `O=C(Nc1cnc(-n2nccn2)c(Cl)c1)c1cnn(-c2cccc(-c3ccco3)n2)c1C(F)(F)F` [Cpd 207, N-(5-chloro-6-(2H-1,2,3-triazol-2-yl)pyridin-3-yl)-1-(6-(furan-2-yl)pyridin-2-yl)-5-(trifluoromethyl)-1H-pyrazole-4-carboxamide] belongs 5620 nM.
Same read-out and setting: to `O=C(Nc1cnc(-n2nccn2)c(Cl)c1)c1cnn(-c2cccc(C3=COCCO3)n2)c1C(F)(F)F` [Cpd 208, N-(5-chloro-6-(2H-1,2,3-triazol-2-yl)pyridin-3-yl)-1-(6-(5,6-dihydro-1,4-dioxin-2-yl)pyridin-2-yl)-5-(trifluoromethyl)-1H-pyrazole-4-carboxamide] belongs 5130 nM.
